Measured values: publication PMC11576293, “New series of 4,6-diaryl pyrimidines: facile synthesis and antiproliferative activity as dual EGFR/VEGFR-2 inhibitors” (Frontiers in Chemistry, 2024)
Where “and” joins values, the source holds several entries; their conditions need not be identical. Equal values may be shown once.

Legend:
VEGFR-2 = VEGFR-2 (Homo sapiens, UniProt P35968); experiment: VEGFR-2 inhibitory assay
[1] = Experimental lipophilicity by RP-TLC; type: physicochemical; conditions: for Experimental lipophilicity Co: concentration of MeOH at RM = 0, in % (unit assumed)
From the text: The RP-TLC method was used to measure the lipophilicity parameters (RMo, b, and Co) described in the experimental section. The mobile phase consisted of different proportions of water and organic modifier (MeOH). RF and RM values were obtained for each ratio of organic modifier/water system (Supplementary Table S3), and a linear regression analysis was achieved to obtain the lipophilicity chromatographic descriptors (RMo, b, and Co, see Table 6). Relative lipophilicity (RMo) describes the partitioning of the solute between pure water and nonpolar stationary phase. In contrast, the second lipophilicity parameter (Co) represents the concentration of organic modifier in the mobile phase in which the solute is equally distributed between two phases (i.e., RM = 0, and Rf = 0.5). Also, Co is known to be widely used in QSAR analysis as it embraces both the specific hydrophobic surface area of the solute and RMo. […] Finally, the slope of the regression line (b) was used as a descriptor of the specific hydrophobic surface area of the compound. In a series of structurally related compounds, b is linearly correlated with RMo, resulting in a linear relationship that is the basic feature of the chromatographic determination of lipophilicity. […] Moreover, substituents affected tested compounds’ measured lipophilicity parameter (RMo) values. Higher RMo values were found with lipophilic derivatives containing the benzyl group (14, 22, and 28), while lower RMo values were found with derivatives containing alkyl or allyl groups (19, 26, and 27). An interesting contradiction was found with experimental lipophilicity value of 28 and its congener 14, where compound 28 was found more lipophilic than its congener 14 even though it contains two methoxy groups and according to ChemDraw® and MolSoft® programs, derivative 14 should be more lipophilic while the MOE® program expects values matching our findings. […] Also, S-allyl derivatives were nearly equipotent to S-alkyl congeners as antiproliferative agents but quite different in terms of lipophilicity.

[2] = Cell viability assay (MTT) on normal cells; type: cell-based; conditions: human, MCF-10A normal mammary gland epithelial cells, 4 days incubation
Method: (§1) This experiment examines the impact of the newly developed compounds 9–29 on normal cell lines to assess their safety level. The vitality of the investigated compounds was assessed using the MCF-10 A cell line, a normal human mammary gland epithelial cell line. Following 4 days of incubation on MCF-10 A cells with each examined compound at a concentration of 50 μM, the vitality of the cells was assessed using the MTT test ([Mahmoud et al., 2022]; [Mekheimer et al., 2022]).
as §1, with “The viability” for “The vitality”, “of 9–29” for “of the investigated compounds”, “2022]). Refer to Supplementary Material A1 for more details. […]” for “2022]).”
4.2. Biological evaluation
4.2.1. Cytotoxic activity using MTT Assay and evaluation of IC50
MTT assay was carried out to study the effect of compounds on mammary epithelial cells (MCF-10A). The medium in which cells were propagated contained Dulbecco's modified Eagle's medium (DMEM)/ Ham's F-12 medium (1:1) supplemented with epidermal growth factor (20 ng/mL), hydrocortisone (500 ng/mL), insulin (10 μg/mL), 2 mM glutamine and 10% foetal calf serum.
After every 2-3 days, the cells were passaged using trypsin ethylenediamine tetra acetic acid (EDTA). The cells were seeded at a density of 10^4 cells mL-1 in flat-bottomed culture plates containing 96 wells each. After 24 h, medium was removed from the plates and the compounds in (in 0.1% DMSO) were added (in 200 μL medium to yield a final concentration of 0.1% v/v) to the wells of plates. A single compound was designated with four wells followed by incubation of plates for 96h at 37°C. After incubation, medium was removed completely from the plates followed by addition of MTT (0.4 mg/mL in medium) to each well and subsequent incubation of plates for 3h. MTT (along with the medium) was removed and DMSO (150μL) was added to each well of the culture plates, followed by vertexing and subsequent measurement of absorbance (at 540 nm) using microplate reader. The data are shown as percentage inhibition of proliferation in comparison with controls containing 0.1% DMSO. […]

EGFR = target: T1, EGFR (Homo sapiens, UniProt P00533); experiment: EGFR-TK inhibitory assay; type: biochemical; conditions: read-out: EGFR inhibition IC50 ± SEM
T1 construct: amino acids 645–1186; His6 (N); made in house; host or cells: Sf-9 insect cells (baculovirus; pBlueBacHis2B / pFASTBacHTc)

A-549 cancer cells = experiment: Wound healing assay (migration, wound closure); type: cell-based, human; conditions: A-549 cells
Method: Wound healing assay is a simple, reproducible, and non-expensive method to study cancer cell migration in vitro ([Rodriguez et al., 2005]). We investigated the wound-healing activities of compounds 22 and 29 in A-549 cancer cells. […] Furthermore, the wound closure percentage achieved 100% after 72 h of treatment with a compound 22, whereas it reached only 80% with a compound 29.

T1 sequence (P00533 669-1210): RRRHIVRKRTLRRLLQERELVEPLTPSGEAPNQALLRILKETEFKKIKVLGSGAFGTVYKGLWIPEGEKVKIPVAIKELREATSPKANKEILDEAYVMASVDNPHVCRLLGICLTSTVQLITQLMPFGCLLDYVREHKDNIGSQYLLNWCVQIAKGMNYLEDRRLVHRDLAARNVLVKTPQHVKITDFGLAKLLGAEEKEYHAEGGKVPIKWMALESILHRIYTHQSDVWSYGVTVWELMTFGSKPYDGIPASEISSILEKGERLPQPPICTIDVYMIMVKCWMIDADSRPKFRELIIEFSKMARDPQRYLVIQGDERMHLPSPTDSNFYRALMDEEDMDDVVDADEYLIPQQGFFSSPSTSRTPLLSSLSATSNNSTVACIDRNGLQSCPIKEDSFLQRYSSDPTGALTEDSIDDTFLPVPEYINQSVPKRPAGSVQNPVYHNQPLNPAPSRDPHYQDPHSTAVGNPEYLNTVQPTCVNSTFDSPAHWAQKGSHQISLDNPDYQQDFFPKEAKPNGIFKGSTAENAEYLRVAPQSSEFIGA
Chain of VEGFR-2 (P35968 20-1356): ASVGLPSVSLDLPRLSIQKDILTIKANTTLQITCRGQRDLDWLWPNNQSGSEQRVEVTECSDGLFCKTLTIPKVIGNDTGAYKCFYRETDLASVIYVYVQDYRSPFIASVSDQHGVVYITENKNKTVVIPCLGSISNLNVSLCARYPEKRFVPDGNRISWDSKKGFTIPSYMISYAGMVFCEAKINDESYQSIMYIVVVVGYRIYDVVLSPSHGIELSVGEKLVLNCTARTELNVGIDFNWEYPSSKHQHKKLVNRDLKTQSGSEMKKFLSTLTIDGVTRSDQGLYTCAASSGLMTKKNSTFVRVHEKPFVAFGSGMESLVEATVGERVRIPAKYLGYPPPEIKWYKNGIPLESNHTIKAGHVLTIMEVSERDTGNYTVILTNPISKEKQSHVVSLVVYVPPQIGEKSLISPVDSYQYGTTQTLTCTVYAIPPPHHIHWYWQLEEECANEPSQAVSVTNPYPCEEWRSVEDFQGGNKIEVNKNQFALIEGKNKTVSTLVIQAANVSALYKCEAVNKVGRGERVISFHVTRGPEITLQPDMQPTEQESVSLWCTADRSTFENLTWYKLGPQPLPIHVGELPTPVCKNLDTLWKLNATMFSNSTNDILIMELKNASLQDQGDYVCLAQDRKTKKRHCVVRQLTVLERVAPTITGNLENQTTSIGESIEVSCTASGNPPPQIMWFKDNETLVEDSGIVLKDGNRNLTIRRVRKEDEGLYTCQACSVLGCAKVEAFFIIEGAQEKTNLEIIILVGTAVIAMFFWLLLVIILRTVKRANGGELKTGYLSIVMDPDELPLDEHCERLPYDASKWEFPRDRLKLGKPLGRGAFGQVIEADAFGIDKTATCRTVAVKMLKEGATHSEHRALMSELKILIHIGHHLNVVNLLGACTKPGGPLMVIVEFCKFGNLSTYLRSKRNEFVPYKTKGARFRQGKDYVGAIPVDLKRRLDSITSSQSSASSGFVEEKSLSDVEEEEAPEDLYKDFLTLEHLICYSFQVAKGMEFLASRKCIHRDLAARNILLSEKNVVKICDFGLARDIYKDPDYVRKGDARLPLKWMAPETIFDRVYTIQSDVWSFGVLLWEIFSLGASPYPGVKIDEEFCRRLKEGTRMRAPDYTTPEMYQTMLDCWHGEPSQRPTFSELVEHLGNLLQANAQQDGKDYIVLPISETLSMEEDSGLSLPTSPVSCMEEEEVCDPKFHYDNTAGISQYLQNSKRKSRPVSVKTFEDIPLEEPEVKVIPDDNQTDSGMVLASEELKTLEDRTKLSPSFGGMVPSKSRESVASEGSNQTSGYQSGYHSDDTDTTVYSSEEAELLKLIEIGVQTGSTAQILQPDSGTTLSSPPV

Row | Compound | IC50 (VEGFR-2) [nM] | Experimental lipophilicity RMo ([1]; MeOH/water mobile phase) | Experimental lipophilicity b (slope) ([1]; MeOH/water mobile phase) | Experimental lipophilicity Co [1] | viability at 4 days, 50 µM [2] [%] | IC50 (EGFR) [nM] | melting point [°C] | Wound closure % 24 h (A-549 cancer cells; 24 h) [%] | Wound closure % 48 h (A-549 cancer cells; 48 h) [%] | Wound closure % 72 h (A-549 cancer cells; 72 h) [%]
1 | COc1ccc(-c2cc(-c3ccc(Cl)cc3)nc(SCc3ccccc3)n2)cc1 [Compound 14, 2-(Benzylthio)-4-(4-chlorophenyl)-6-(4-methoxyphenyl)pyrimidine] | 2.2 ± 0.02 | 7.024 ± 0.05913 | -0.074 ± 0.00066 | 91.3417 | 90 | 90 ± 7 | 288 to 290 |  |  | 
2 | COc1ccc(-c2cc(-c3cccc(OC)c3)nc(SC(C)C)n2)cc1 [Compound 19, 2-(Isopropylthio)-6-(3-methoxyphenyl)-4-(4-methoxyphenyl)pyrimidine] | 2.7 ± 0.02 | 7.02 |  | 87.6579 and 91.32 | 90 | 83 ± 6 | 235 to 237 |  |  | 
3 | COc1ccc(CSc2nc(-c3ccc(Cl)cc3)cc(-c3ccc(OC)c(OC)c3)n2)cc1 [Compound 29, 2-(4-Methoxybenzylthio)-4-(4-chlorophenyl)-6-(3,4-dimethoxyphenyl)pyrimidine] | 1.6 ± 0.01 |  |  |  | 91 | 72 ± 5 | 279 to 281 | 11 | 34 | 80
